Experimental data published in patent US8883792B2, “Substituted isoquinoline derivative” (D. Western Therapeutics Institute, Inc., priority 2010, dated 2014).
Where a name gives a salt, the structure may show the parent alone.

The compounds below were run on rabbits (New Zealand White) (assay: Ocular hypotensive effect in rabbits). Conditions: male New Zealand White rabbits, 0.04 mL eye drop, concentration of 1% (w/v) or lower, maximum ocular hypotensive rate vs vehicle-treated contralateral eye.
Format: in vivo, rabbit
Procedure: The compound of the present invention was administered to rabbits (New Zealand White, sex: male, 3 to 6 per group) and evaluated for its ocular hypotensive effect.
Each test compound was dissolved in a vehicle 1 (1.04 g of sodium dihydrogen phosphate dihydrate and 0.5 g of sodium chloride dissolved in purified water and then adjusted to pH 7.0 with sodium hydroxide to make the total amount to 100 mL) or a vehicle 2 (2% (w/v) aqueous boric acid solution) to prepare a test compound solution with a predetermined concentration.
The intraocular pressures of the rabbits were measured using Tiolat TonoVet handheld tonometer immediately before administration of test compound. The test compound solution and the vehicle were dropped at a volume of 0.04 mL to one eye and the contralateral eye, respectively, and the intraocular pressures were measured over time in the same way as above. The rate of the intraocular pressure of the eye receiving the test compound solution to that of the eye receiving the vehicle was calculated as an ocular hypotensive rate.
For `C[C@H](CC(N)CCc1ccccc1)NS(=O)(=O)c1ccc2cnccc2c1` (single isomer, unassigned; diastereomer a) [Example 118], the Ocular hypotensive activity was “++ (maximum ocular hypotensive rate of 15% or more)”. With `C[C@H](CC(N)CCc1ccccc1)NS(=O)(=O)c1ccc2cnccc2c1` (single isomer, unassigned; diastereomer b) [Example 119] the Ocular hypotensive activity was “++ (maximum ocular hypotensive rate of 15% or more)”. `C[C@H](CNCc1ccccc1)NS(=O)(=O)c1ccc2cnccc2c1` [Example 1, (R)—N-{1-(benzylamino)propan-2-yl}isoquinoline-6-sulfonamide dihydrochloride] was tested, and the Ocular hypotensive activity was “++ (maximum ocular hypotensive rate of 15% or more)”. With `CNC[C@@H](C)NS(=O)(=O)c1ccc2cnccc2c1` [Example 2, (R)—N-{1-(methylamino)propan-2-yl}isoquinoline-6-sulfonamide dihydrochloride] the Ocular hypotensive activity was “++ (maximum ocular hypotensive rate of 15% or more)”. For `CCNC[C@@H](C)NS(=O)(=O)c1ccc2cnccc2c1` [Example 3, (R)—N-{1-(ethylamino)propan-2-yl}isoquinoline-6-sulfonamide dihydrochloride], the Ocular hypotensive activity was “++ (maximum ocular hypotensive rate of 15% or more)”. For `CCCNC[C@@H](C)NS(=O)(=O)c1ccc2cnccc2c1` [Example 4, (R)—N-{1-(propylamino)propan-2-yl}isoquinoline-6-sulfonamide dihydrochloride], the Ocular hypotensive activity was “++ (maximum ocular hypotensive rate of 15% or more)”. In the case of `CCCCNC[C@H](C)NS(=O)(=O)c1ccc2cnccc2c1` [Example 6, (S)—N-{1-(butylamino)propan-2-yl}isoquinoline-6-sulfonamide dihydrochloride], the Ocular hypotensive activity is reported as “++ (maximum ocular hypotensive rate of 15% or more)”. With `CC=CCNC[C@@H](C)NS(=O)(=O)c1ccc2cnccc2c1` [Example 7, (R)—N-{1-(but-2-enylamino)propan-2-yl}isoquinoline-6-sulfonamide dihydrochloride] the Ocular hypotensive activity was “++ (maximum ocular hypotensive rate of 15% or more)”. With `CC=CCNC[C@H](C)NS(=O)(=O)c1ccc2cnccc2c1` [Example 8, (S)—N-{1-(but-2-enylamino)propan-2-yl}isoquinoline-6-sulfonamide dihydrochloride] the Ocular hypotensive activity was “++ (maximum ocular hypotensive rate of 15% or more)”. For `C=CCNC[C@@H](C)NS(=O)(=O)c1ccc2cnccc2c1` [Example 9, (R)—N-{1-(allylamino)propan-2-yl}isoquinoline-6-sulfonamide dihydrochloride], the Ocular hypotensive activity was “++ (maximum ocular hypotensive rate of 15% or more)”. `C=CCNCCNS(=O)(=O)c1ccc2cnccc2c1` [Example 10, N-{2-(allylamino)ethyl}isoquinoline-6-sulfonamide dihydrochloride] was tested, and the Ocular hypotensive activity was “++ (maximum ocular hypotensive rate of 15% or more)”. In the case of `CCCCN[C@H](C)CNS(=O)(=O)c1ccc2cnccc2c1` [Example 11, (R)—N-{2-(butylamino)propyl}isoquinoline-6-sulfonamide dihydrochloride], the Ocular hypotensive activity is reported as “+ (maximum ocular hypotensive rate of 5% or more and less than 15%)”. With `CCCNCC[C@@H](C)NS(=O)(=O)c1ccc2cnccc2c1` [Example 12, (R)—N-{4-(propylamino)butan-2-yl}isoquinoline-6-sulfonamide dihydrochloride] the Ocular hypotensive activity was “++ (maximum ocular hypotensive rate of 15% or more)”. For `C[C@H](CN1CCNCC1)NS(=O)(=O)c1ccc2cnccc2c1` [Example 13, (R)—N-{1-(piperazin-1-yl)propan-2-yl}isoquinoline-6-sulfonamide trihydrochloride], the Ocular hypotensive activity was “+ (maximum ocular hypotensive rate of 5% or more and less than 15%)”. `CC(C)CNC[C@@H](C)NS(=O)(=O)c1ccc2cnccc2c1` [Example 14, (R)—N-{1-(isobutylamino)propan-2-yl}isoquinoline-6-sulfonamide dihydrochloride] was tested, and the Ocular hypotensive activity was “++ (maximum ocular hypotensive rate of 15% or more)”. For `C[C@H](CNC1CC1)NS(=O)(=O)c1ccc2cnccc2c1` [Example 15, (R)—N-{1-(cyclopropylamino)propan-2-yl}isoquinoline-6-sulfonamide dihydrochloride], the Ocular hypotensive activity was “++ (maximum ocular hypotensive rate of 15% or more)”. With `C[C@H](CNCC1CCC1)NS(=O)(=O)c1ccc2cnccc2c1.Cl` [Example 16, (R)—N-{1-(cyclobutylmethylamino)propan-2-yl}isoquinoline-6-sulfonamide hydrochloride] the Ocular hypotensive activity was “++ (maximum ocular hypotensive rate of 15% or more)”. With `C[C@H](CNCC(C)(C)C)NS(=O)(=O)c1ccc2cnccc2c1` [Example 17, (R)—N-{1-(neopentylamino)propan-2-yl}isoquinoline-6-sulfonamide dihydrochloride] the Ocular hypotensive activity was “++ (maximum ocular hypotensive rate of 15% or more)”. For `C[C@H](CNCC1CC1)NS(=O)(=O)c1ccc2cnccc2c1` [Example 18, (R)—N-{1-(cyclopropylmethylamino)propan-2-yl}isoquinoline-6-sulfonamide dihydrochloride], the Ocular hypotensive activity was “++ (maximum ocular hypotensive rate of 15% or more)”. With `CCCCCNC[C@@H](C)NS(=O)(=O)c1ccc2cnccc2c1` [Example 19, (R)—N-{1-(pentylamino)propan-2-yl}isoquinoline-6-sulfonamide dihydrochloride] the Ocular hypotensive activity was “++ (maximum ocular hypotensive rate of 15% or more)”. In the case of `CCC(C)CNC[C@@H](C)NS(=O)(=O)c1ccc2cnccc2c1` (stereo partly drawn) [Example 20, N-(2R)-{1-(methylbutylamino)propan-2-yl}isoquinoline-6-sulfonamide hydrochloride], the Ocular hypotensive activity is reported as “++ (maximum ocular hypotensive rate of 15% or more)”. In the case of `CC(C)CCNC[C@@H](C)NS(=O)(=O)c1ccc2cnccc2c1.Cl` [Example 21, (R)—N-{1-(isopentylamino)propan-2-yl}isoquinoline-6-sulfonamide hydrochloride], the Ocular hypotensive activity is reported as “+ (maximum ocular hypotensive rate of 5% or more and less than 15%)”. `CCCCCCNC[C@@H](C)NS(=O)(=O)c1ccc2cnccc2c1` [Example 22, (R)—N-{1-(hexylamino)propan-2-yl}isoquinoline-6-sulfonamide dihydrochloride] was tested, and the Ocular hypotensive activity was “++ (maximum ocular hypotensive rate of 15% or more)”. `C[C@@H](CNCCc1ccccc1)NS(=O)(=O)c1ccc2cnccc2c1` [Example 24, (S)—N-{1-(phenethylamino)propan-2-yl}isoquinoline-6-sulfonamide dihydrochloride] was tested, and the Ocular hypotensive activity was “++ (maximum ocular hypotensive rate of 15% or more)”. `C[C@H](CNC[C@@H](C)c1ccccc1)NS(=O)(=O)c1ccc2cnccc2c1` [Example 26, N—[(R)-1-{(S)-2-phenylpropylamino}propan-2-yl]isoquinoline-6-sulfonamide dihydrochloride] was tested, and the Ocular hypotensive activity was “++ (maximum ocular hypotensive rate of 15% or more)”. For `CC(C)[C@H](CNCCc1ccccc1)NS(=O)(=O)c1ccc2cnccc2c1` [Example 27, (R)—N-{3-methyl-1-(phenethylamino)butan-2-yl}isoquinoline-6-sulfonamide dihydrochloride], the Ocular hypotensive activity was “++ (maximum ocular hypotensive rate of 15% or more)”. In the case of `COc1ccccc1CCNC[C@@H](C)NS(=O)(=O)c1ccc2cnccc2c1` [Example 28, (R)—N-{1-(2-methoxyphenethylamino)propan-2-yl}isoquinoline-6-sulfonamide dihydrochloride], the Ocular hypotensive activity is reported as “++ (maximum ocular hypotensive rate of 15% or more)”. `COc1cccc(CCNC[C@@H](C)NS(=O)(=O)c2ccc3cnccc3c2)c1` [Example 29, (R)—N-{1-(3-methoxyphenethylamino)propan-2-yl}isoquinoline-6-sulfonamide dihydrochloride] was tested, and the Ocular hypotensive activity was “++ (maximum ocular hypotensive rate of 15% or more)”. For `COc1ccc(CCNC[C@@H](C)NS(=O)(=O)c2ccc3cnccc3c2)cc1` [Example 30, (R)—N-{1-(4-methoxyphenethylamino)propan-2-yl}isoquinoline-6-sulfonamide dihydrochloride], the Ocular hypotensive activity was “++ (maximum ocular hypotensive rate of 15% or more)”. In the case of `C[C@H](CNCCc1ccccc1F)NS(=O)(=O)c1ccc2cnccc2c1` [Example 31, (R)—N-{1-(2-fluorophenethylamino)propan-2-yl}isoquinoline-6-sulfonamide dihydrochloride], the Ocular hypotensive activity is reported as “++ (maximum ocular hypotensive rate of 15% or more)”. In the case of `Cl.O=S(=O)(NCCNCCc1ccccc1)c1ccc2cnccc2c1` [Example 32, N-{2-(phenethylamino)ethyl}isoquinoline-6-sulfonamide hydrochloride], the Ocular hypotensive activity is reported as “++ (maximum ocular hypotensive rate of 15% or more)”. With `C[C@H](CNCCC1CCCCC1)NS(=O)(=O)c1ccc2cnccc2c1` [Example 33, (R)—N-{1-(2-cyclohexylethylamino)propan-2-yl}isoquinoline-6-sulfonamide dihydrochloride] the Ocular hypotensive activity was “++ (maximum ocular hypotensive rate of 15% or more)”. In the case of `C[C@H](CNCCCc1ccccc1)NS(=O)(=O)c1ccc2cnccc2c1` [Example 34, (R)—N-{1-(3-phenylpropylamino)propan-2-yl}isoquinoline-6-sulfonamide dihydrochloride], the Ocular hypotensive activity is reported as “++ (maximum ocular hypotensive rate of 15% or more)”. With `C[C@@H](CNCCc1c[nH]c2ccccc12)NS(=O)(=O)c1ccc2cnccc2c1.Cl` [Example 37, (S)—N-[1-{2-(1H-indol-3-yl)ethylamino}propan-2-yl]isoquinoline-6-sulfonamide hydrochloride] the Ocular hypotensive activity was “++ (maximum ocular hypotensive rate of 15% or more)”.
